Where two headings read alike, the source gives them in different places.
How the values were obtained:
[1] = target: T1, recombinant GST-FXR fusion protein (Homo sapiens, UniProt Q96RI1); test: FXR activity at the molecular level (AlphaScreen); format: biochemical
T1 sequence (Q96RI1 1-486): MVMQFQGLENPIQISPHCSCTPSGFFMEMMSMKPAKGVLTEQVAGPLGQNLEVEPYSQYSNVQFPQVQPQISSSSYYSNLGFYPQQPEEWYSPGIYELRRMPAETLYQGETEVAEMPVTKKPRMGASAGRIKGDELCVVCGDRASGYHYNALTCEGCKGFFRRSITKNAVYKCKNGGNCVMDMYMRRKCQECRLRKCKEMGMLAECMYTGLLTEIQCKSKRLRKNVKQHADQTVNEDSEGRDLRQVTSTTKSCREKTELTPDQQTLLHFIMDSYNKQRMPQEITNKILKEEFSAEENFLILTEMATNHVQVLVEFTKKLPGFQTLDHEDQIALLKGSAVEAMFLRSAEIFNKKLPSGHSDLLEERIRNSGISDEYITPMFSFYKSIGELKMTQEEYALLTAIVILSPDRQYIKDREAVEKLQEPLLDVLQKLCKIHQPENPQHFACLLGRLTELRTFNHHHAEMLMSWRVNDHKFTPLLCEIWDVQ
Description: Test Method for FXR Activity at the Molecular Level
FXR activity was determined using recombinant GST-FXR fusion protein by Perkin Elmer's AlphaScreen detection reagent. The reaction in this method was carried out in a 384-well plate, and the total reaction volume was 15 μL. The mixture of protein, agonist, co-regulatory factor, AlphaScreen® acceptor beads and AlphaScreen® donor beads was reacted in a buffer containing Tris-HCl 50 mM (pH7.4), 50 mM NaCl, BSA 0.1%, and 1 mM DTT. The FXR activity was reflected by the fluorescence signal intensity at 570 nm wavelength detected by the Envision fluorescence detector. The value of EC50 was calculated by the software Graphpad Prism 5.

[2] = target: T2, FXR receptor (Homo sapiens, UniProt Q96RI1); test: FXR activity at the cell level (FXRE luciferase reporter in 293T cells); format: cell-based; details: for Activity relative to OCA (%) 10 μM: luciferase reporter
T2 construct: expressed in transfected cells; host or cells: 293T cells
T2 sequence (Q96RI1 1-486): T1 sequence (Q96RI1 1-486)
Description: The cells were cultured for 24 hours to ensure plasmid expression. Then the FXR receptor agonist to be tested was added and acted for 18 hours. The fluorescence intensity was detected using luciferase kit (steady-Glo Luciferase Assay system) to reflect the compound's activation efficiency on the FXR receptor. […] The appropriate concentration interval was selected, and the dose-dependent relationship, that is, the EC50 value, was calculated.

[3] = 293T cells, FXRE luciferase reporter, read-out: EC50 (cell level)

EC50 [1]	Activity relative to OCA (%) 10 μM ([2]; 293T cells)	EC50 [2, 3]	Compound	EC50 [2]
439 nM	164%	0.7 nM	CC(C)c1onc(-c2c(Cl)cccc2Cl)c1COC1CCN(c2ccc(-c3noc(=O)[nH]3)cc2)CC1 [Example 11]	
89 nM	120%	0.255 nM	O=c1[nH]c(-c2c(F)cc(N3CCC(OCc4c(-c5ccccc5OC(F)(F)F)noc4C4CC4)CC3)cc2F)no1 [Example 30]	
4700 nM	83%	844 nM	O=c1[nH]c(-c2cccc(N3CCC(OCc4c(-c5c(Cl)cccc5Cl)noc4C4CC4)C3)c2)no1 (stereo not drawn) [Example 5]	
96.7 nM	117%	1.32 nM	O=c1[nH]c(-c2ccc(N3CCC(OCc4c(-c5ccccc5C(F)(F)F)noc4C4CC4)CC3)nc2)no1 [Example 21]	
72 nM	174%	1 nM	O=c1[nH]c(-c2ccc(N3CCC(OCc4c(-c5c(Cl)cccc5Cl)noc4C4CC4)CC3)cc2)no1 [Example 2]	
15 nM	97%	0.6 nM	O=c1[nH]c(-c2ccc(N3CCCC(OCc4c(-c5c(Cl)cccc5Cl)noc4C4CC4)CC3)cc2)no1 (stereo not drawn) [Example 4]	
3920 nM	99%	32 nM	O=c1[nH]c(-c2ccc(N3CCC(OCc4c(-c5c(Cl)cccc5Cl)noc4C4CC4)C3)cc2)no1 (stereo not drawn) [Example 6]	
386 nM	108%	1.99 nM	O=c1[nH]c(-c2ccc(N3CCC(OCc4c(-c5ccccc5C(F)(F)F)noc4C4CC4)CC3)cn2)no1 [Example 22]	
20.9 nM	106%	0.357 nM	O=c1[nH]c(-c2ccc(N3CCC(OCc4c(-c5ccccc5OC(F)(F)F)noc4C4CC4)CC3)cn2)no1 [Example 27]	
70 nM	103%	0.254 nM	O=c1[nH]c(-c2ccc(N3CCC(OCc4c(-c5ccccc5OC(F)(F)F)noc4C4CC4)CC3)nc2)no1 [Example 26]	
2650 nM	159%	3 nM	Cc1cc(-c2noc(=O)[nH]2)ccc1N1CCC(OCc2c(-c3c(Cl)cccc3Cl)noc2C2CC2)CC1 [Example 15]	
598 nM	74%	5 nM	O=c1[nH]c(-c2ccc(N3CCC(OCc4c(-c5c(Cl)cccc5Cl)noc4C4CC4)CC3)cn2)no1 [Example 14]	
59 nM	105%	0.196 nM	O=c1[nH]c(-c2ccc(N3CCC(OCc4c(-c5ccccc5C(F)(F)F)noc4C4CC4)CC3)cc2F)no1 [Example 24]	
55 nM	90%	4 nM	O=c1[nH]c(-c2ccc(N3CCC(OCc4c(-c5ccccc5OC(F)(F)F)noc4C4CC4)CC3)cc2)no1 [Example 9]	
5470 nM	146%	5 nM	S=c1[nH]c(-c2ccc(N3CCC(OCc4c(-c5c(Cl)cccc5Cl)noc4C4CC4)CC3)cc2)no1 [Example 20]	
3140 nM	132%	285 nM	Cn1cc(-c2noc(=O)[nH]2)c2cc(N3CCC(OCc4c(-c5c(Cl)cccc5Cl)noc4C4CC4)CC3)ccc21 [Example 19]	
178 nM	111%	0.7 nM	O=c1[nH]c(-c2ccc(N3CCC(OCc4c(-c5c(Cl)cccc5Cl)noc4C4CC4)CC3)nc2)no1 [Example 13]	
392 nM	109%	2.22 nM	O=c1[nH]c(-c2ccc(N3CCC(OCc4c(-c5ccccc5C(F)(F)F)noc4C4CC4)CC3)c(F)c2)no1 [Example 23]	
195 nM	168%	0.2 nM	O=c1[nH]c(-c2ccc(N3CCC(OCc4c(-c5c(Cl)cccc5Cl)noc4C4CC4)CC3)cc2F)no1 [Example 16]	
1040 nM	202%	0.2 nM	Cc1onc(-c2c(Cl)cccc2Cl)c1COC1CCN(c2ccc(-c3noc(=O)[nH]3)cc2)CC1 [Example 10]	
614 nM	150%	2 nM	O=c1[nH]c(-c2ccc(N3CCC(OCc4c(-c5c(Cl)cccc5Cl)noc4C4CC4)CC3)c(F)c2)no1 [Example 18]	
257 nM	161%	0.3 nM	O=c1[nH]c(-c2c(F)cc(N3CCC(OCc4c(-c5c(Cl)cccc5Cl)noc4C4CC4)CC3)cc2F)no1 [Example 17]	
1810 nM	87%	14 nM	O=c1[nH]c(-c2cccc(N3CCCC(OCc4c(-c5c(Cl)cccc5Cl)noc4C4CC4)CC3)c2)no1 (stereo not drawn) [Example 3]	
380 nM	107%	0.617 nM	O=c1[nH]c(-c2ccc(N3CCC(OCc4c(-c5ccccc5OC(F)(F)F)noc4C4CC4)CC3)c(F)c2)no1 [Example 28]	
84.7 nM	103%	0.12 nM	O=c1[nH]c(-c2c(F)cc(N3CCC(OCc4c(-c5ccccc5C(F)(F)F)noc4C4CC4)CC3)cc2F)no1 [Example 25]	
108 nM	120%	0.938 nM	O=c1[nH]c(-c2ccc(N3CCC(OCc4c(-c5ccccc5OC(F)(F)F)noc4C4CC4)CC3)cc2F)no1 [Example 29]	
2880 nM	63%	35 nM	O=c1[nH]c(-c2ccc(N3CCC(OCc4c(-c5c(Cl)cccc5Cl)noc4-c4ccccc4)CC3)cc2)no1 [Example 12]	

Compound	EC50 [1]	Activity relative to OCA (%) 10 μM ([2]; 293T cells)	EC50 [2, 3]	EC50 [2]
O=c1[nH]c(-c2ccc(N3C4CCC3CC(OCc3c(-c5ccccc5C(F)(F)F)noc3C3CC3)C4)nc2)no1 (stereo not drawn) [Example 33]	18.8 nM	141%	0.387 nM	
O=c1[nH]c(-c2ccc(N3C4CCC3CC(OCc3c(-c5c(F)cccc5F)noc3C3CC3)C4)cc2F)no1 (stereo not drawn) [Example 35]	18.5 nM	117%	0.318 nM	
O=c1[nH]c(-c2ccc(N3C4CCC3CC(OCc3c(-c5ccccc5OC(F)(F)F)noc3C3CC3)C4)nc2)no1 (stereo not drawn) [Example 34]	19.7 nM	122%	0.388 nM	
O=c1[nH]c(-c2ccc(N3C4CCC3CC(OCc3c(-c5ccccc5OC(F)F)noc3C3CC3)C4)cc2F)no1 (stereo not drawn) [Example 41]	28.5 nM	108%	0.718 nM	
Cc1ccccc1-c1noc(C2CC2)c1COC1CC2CCC(C1)N2c1ccc(-c2noc(=O)[nH]2)c(F)c1 (stereo not drawn) [Example 42]	80.4 nM	106%	0.96 nM	
O=c1[nH]c(-c2ccc(N3C4CCC3CC(OCc3c(-c5c(F)cccc5F)noc3C3CC3)C4)nc2)no1 (stereo not drawn) [Example 31]	11.3 nM	116%	0.608 nM	
O=c1[nH]c(-c2ccc(N3C4CCC3CC(OCc3c(-c5ccccc5C(F)(F)F)noc3C3CC3)C4)cc2F)no1 (stereo not drawn) [Example 37]	50.6 nM	102%	0.284 nM	
O=c1[nH]c(-c2ccc(N3C4CCC3CC(OCc3c(-c5c(Cl)cccc5Cl)noc3C3CC3)C4)cc2)no1 (stereo not drawn) [Example 7]	6.7 nM	88%	6 nM	
O=c1[nH]c(-c2ccc(N3C4CCC3CC(OCc3c(-c5ccccc5OC(F)F)noc3C3CC3)C4)nc2)no1 (stereo not drawn) [Example 39]	25 nM	108%	1.49 nM	
O=c1[nH]c(-c2ccc(N3C4CCC3CC(OCc3c(-c5c(Cl)cccc5Cl)noc3C3CC3)C4)cc2F)no1 (stereo not drawn) [Example 36]	4.22 nM	102%		0.0317 nM
O=c1[nH]c(-c2ccc(N3C4CCC3CC(OCc3c(-c5ccccc5OC(F)(F)F)noc3C3CC3)C4)cc2F)no1 (stereo not drawn) [Example 38]	51.3 nM	102%	0.304 nM	
O=c1[nH]c(-c2ccc(N3C4CCC3CC(OCc3c(-c5c(Cl)cccc5Cl)noc3C3CC3)C4)nc2)no1 (stereo not drawn) [Example 32]	4.33 nM	103%	0.0783 nM	
Cc1ccccc1-c1noc(C2CC2)c1COC1CC2CCC(C1)N2c1ccc(-c2noc(=O)[nH]2)cn1 (stereo not drawn) [Example 40]	94.4 nM	105%	2.11 nM	
